Laboratory results: ChEMBL document CHEMBL2401673, “Design, synthesis, functional and structural characterization of an inhibitor of N-acetylneuraminate-9-phosphate phosphatase: observation of extensive dynamics in an enzyme/inhibitor complex” (Bioorg Med Chem Lett, 2013)

Assays:
[1] = Dissociation constant, pKa of the compound by potentiometric titration method; format: physicochemical
[2] = biological target: T1, N-acylneuraminate-9-phosphatase (Homo sapiens, UniProt Q8TBE9); test: Reversible inhibition of recombinant HDHD4 (unknown origin) using Neu5Ac-9-P as substrate assessed as release of phosphate after 30 mins by maiachite green assay
T1 sequence (Q8TBE9 whole entry): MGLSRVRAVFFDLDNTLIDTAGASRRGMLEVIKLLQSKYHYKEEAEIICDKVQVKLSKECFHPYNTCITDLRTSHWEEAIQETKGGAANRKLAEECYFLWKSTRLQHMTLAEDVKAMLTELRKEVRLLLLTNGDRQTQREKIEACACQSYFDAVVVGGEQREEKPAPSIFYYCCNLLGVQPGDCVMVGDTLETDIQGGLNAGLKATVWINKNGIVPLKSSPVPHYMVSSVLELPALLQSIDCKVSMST

[3] = biological target: T1, N-acylneuraminate-9-phosphatase; test: Inhibition of recombinant HDHD4 (unknown origin) using Neu5Ac-9-P as substrate assessed as release of phosphate after 30 mins by maiachite green assay

Row | Structure (SMILES) | pKa [1] | IC50 [2] [µM] | IC50 [3] [µM]
1 | CC(=O)N[C@H]1[C@H]([C@H](O)[C@H](O)CO)O[C@](O)(C(=O)O)C[C@@H]1O | 3.2 |  | 
2 | CC(=O)N[C@H]1[C@H]([C@H](O)[C@H](O)CCP(=O)(O)O)O[C@](O)(C(=O)O)C[C@@H]1O | 3.5 | 11 | 
3 | CO[C@@]1(C(=O)O)C[C@H](O)[C@@H](NC(C)=O)[C@H]([C@H](O)[C@H](O)CCP(=O)(O)O)O1 |  |  | 49.8
4 | CC(=O)N[C@H]1[C@H]([C@H](O)[C@H](O)CCC(=O)O)O[C@](O)(C(=O)O)C[C@@H]1O |  |  | > 100
5 | CC(=O)N[C@H]1[C@H]([C@H](O)[C@H](O)COP(=O)(O)O)O[C@](O)(C(=O)O)C[C@@H]1O | 3.6 |  | 
6 | COC(=O)[C@]1(OC)C[C@H](O)[C@@H](NC(C)=O)[C@H]([C@H](O)[C@H](O)CCP(=O)(O)O)O1 |  |  | 93.7
